# Source: ChEMBL document CHEMBL4393731, “Discovery of fused bicyclic derivatives of 1H-pyrrolo[1,2-c]imidazol-1-one as VDR signaling regulators” (Bioorg Med Chem, 2019)
# Activity calls are given as the source filed them. The rule behind the calls is not given here.
# Target: T1, Vitamin D3 receptor (Homo sapiens) (UniProt P11473)
# T1 sequence (whole entry): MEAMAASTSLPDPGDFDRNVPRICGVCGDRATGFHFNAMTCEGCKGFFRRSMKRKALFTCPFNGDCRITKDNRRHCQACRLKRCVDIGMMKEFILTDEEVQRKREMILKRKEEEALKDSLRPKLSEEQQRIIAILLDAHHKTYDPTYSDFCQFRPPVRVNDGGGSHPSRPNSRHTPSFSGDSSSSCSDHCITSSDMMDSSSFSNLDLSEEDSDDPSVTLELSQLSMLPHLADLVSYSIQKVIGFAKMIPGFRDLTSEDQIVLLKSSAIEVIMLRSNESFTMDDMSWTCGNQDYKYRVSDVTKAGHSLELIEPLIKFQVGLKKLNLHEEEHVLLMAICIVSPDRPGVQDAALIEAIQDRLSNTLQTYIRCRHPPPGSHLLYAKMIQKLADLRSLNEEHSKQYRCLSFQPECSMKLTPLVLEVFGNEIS
# Experiment: Modulation of VDR (unknown origin) expressed in human HeLa cells assessed as increase in calcitriol-induced response measured after 24 hrs by luciferase reporter assay
# Assay type: cell-based
row,Activity,SMILES
1,inactive,O=C1[C@@H]2CCCN2[C@@H](CCC[C@H]2N(c3ccc([N+](=O)[O-])cc3)C(=O)[C@@H]3CCCN32)N1c1ccc([N+](=O)[O-])cc1
2,inactive,O=C1[C@@H]2CCCN2[C@@H](Cc2ccccc2)N1c1ccc([N+](=O)[O-])cc1
3,inactive,O=C1[C@@H]2CCCN2[C@@H](c2ccc(Cl)cc2)N1c1ccc([N+](=O)[O-])cc1
4,inactive,CC(C)c1ccc([C@H]2N(c3ccc([N+](=O)[O-])cc3)C(=O)[C@@H]3CCCN32)cc1
5,inactive,O=C1[C@@H]2CCCN2[C@@H](c2ccccc2)N1c1ccc([N+](=O)[O-])cc1
6,inactive,O=C1[C@@H]2CCCN2[C@@H](c2cccc([N+](=O)[O-])c2)N1c1ccc([N+](=O)[O-])cc1
7,inactive,O=C1[C@@H]2CCCN2[C@@H](c2ccccc2[N+](=O)[O-])N1c1ccc([N+](=O)[O-])cc1
8,inactive,O=C1[C@@H]2CCCN2[C@@H](Cc2ccc([N+](=O)[O-])cc2)N1c1ccc([N+](=O)[O-])cc1
9,inactive,O=C1[C@@H]2CCCN2[C@@H](c2cccs2)N1c1ccc([N+](=O)[O-])cc1
10,Dose-dependent effect,O=C1[C@@H]2CCCN2[C@@H](c2ccc(O)cc2)N1c1ccc([N+](=O)[O-])cc1

# Target: T1, Vitamin D3 receptor (Homo sapiens)
# Experiment: Activation of VDR (unknown origin) expressed in human HeLa cells measured after 24 hrs by luciferase reporter assay
# Assay type: cell-based
row,Activity,SMILES
1,inactive,O=C1[C@@H]2CCCN2[C@@H](CCC[C@H]2N(c3ccc([N+](=O)[O-])cc3)C(=O)[C@@H]3CCCN32)N1c1ccc([N+](=O)[O-])cc1
2,inactive,O=C1[C@@H]2CCCN2[C@@H](Cc2ccccc2)N1c1ccc([N+](=O)[O-])cc1
3,inactive,O=C1[C@@H]2CCCN2[C@@H](c2ccc(Cl)cc2)N1c1ccc([N+](=O)[O-])cc1
4,inactive,CC(C)c1ccc([C@H]2N(c3ccc([N+](=O)[O-])cc3)C(=O)[C@@H]3CCCN32)cc1
5,inactive,O=C1[C@@H]2CCCN2[C@@H](c2ccccc2)N1c1ccc([N+](=O)[O-])cc1
6,inactive,O=C1[C@@H]2CCCN2[C@@H](c2cccc([N+](=O)[O-])c2)N1c1ccc([N+](=O)[O-])cc1
7,inactive,O=C1[C@@H]2CCCN2[C@@H](c2ccccc2[N+](=O)[O-])N1c1ccc([N+](=O)[O-])cc1
8,inactive,O=C1[C@@H]2CCCN2[C@@H](Cc2ccc([N+](=O)[O-])cc2)N1c1ccc([N+](=O)[O-])cc1
9,inactive,O=C1[C@@H]2CCCN2[C@@H](c2cccs2)N1c1ccc([N+](=O)[O-])cc1
10,inactive,O=C1[C@@H]2CCCN2[C@@H](c2ccc(O)cc2)N1c1ccc([N+](=O)[O-])cc1

# Tested on: HeLa
# Experiment: Cytotoxicity against human HeLa cells measured after 24 hrs by MTT assay
# Assay type: cell-based
row,SMILES,CC10 [µM]
1,O=C1[C@@H]2CCCN2[C@@H](CCC[C@H]2N(c3ccc([N+](=O)[O-])cc3)C(=O)[C@@H]3CCCN32)N1c1ccc([N+](=O)[O-])cc1,> 10
2,O=C1[C@@H]2CCCN2[C@@H](Cc2ccccc2)N1c1ccc([N+](=O)[O-])cc1,> 10
3,O=C1[C@@H]2CCCN2[C@@H](c2ccc(Cl)cc2)N1c1ccc([N+](=O)[O-])cc1,> 10
4,CC(C)c1ccc([C@H]2N(c3ccc([N+](=O)[O-])cc3)C(=O)[C@@H]3CCCN32)cc1,> 10
5,O=C1[C@@H]2CCCN2[C@@H](c2ccccc2)N1c1ccc([N+](=O)[O-])cc1,> 10
6,O=C1[C@@H]2CCCN2[C@@H](c2cccc([N+](=O)[O-])c2)N1c1ccc([N+](=O)[O-])cc1,> 10
7,O=C1[C@@H]2CCCN2[C@@H](c2ccccc2[N+](=O)[O-])N1c1ccc([N+](=O)[O-])cc1,> 10
8,O=C1[C@@H]2CCCN2[C@@H](Cc2ccc([N+](=O)[O-])cc2)N1c1ccc([N+](=O)[O-])cc1,> 10
9,O=C1[C@@H]2CCCN2[C@@H](c2cccs2)N1c1ccc([N+](=O)[O-])cc1,> 10
10,O=C1[C@@H]2CCCN2[C@@H](c2ccc(O)cc2)N1c1ccc([N+](=O)[O-])cc1,> 10

# Target: Genome polyprotein (dengue virus type 2) (UniProt P29990)
# Experiment: Inhibition of Dengue virus 2 NS2B-NS3 protease
row,Inhibition (active/not active),SMILES
1,inactive,O=C1[C@@H]2CCCN2[C@@H](CCC[C@H]2N(c3ccc([N+](=O)[O-])cc3)C(=O)[C@@H]3CCCN32)N1c1ccc([N+](=O)[O-])cc1
2,Active,O=C1[C@@H]2CCCN2[C@@H](Cc2ccccc2)N1c1ccc([N+](=O)[O-])cc1
3,Active,O=C1[C@@H]2CCCN2[C@@H](c2ccc(Cl)cc2)N1c1ccc([N+](=O)[O-])cc1
4,Active,CC(C)c1ccc([C@H]2N(c3ccc([N+](=O)[O-])cc3)C(=O)[C@@H]3CCCN32)cc1
5,Active,O=C1[C@@H]2CCCN2[C@@H](c2ccccc2)N1c1ccc([N+](=O)[O-])cc1
6,Active,O=C1[C@@H]2CCCN2[C@@H](c2cccc([N+](=O)[O-])c2)N1c1ccc([N+](=O)[O-])cc1
7,inactive,O=C1[C@@H]2CCCN2[C@@H](c2ccccc2[N+](=O)[O-])N1c1ccc([N+](=O)[O-])cc1
8,Active,O=C1[C@@H]2CCCN2[C@@H](Cc2ccc([N+](=O)[O-])cc2)N1c1ccc([N+](=O)[O-])cc1
9,inactive,O=C1[C@@H]2CCCN2[C@@H](c2cccs2)N1c1ccc([N+](=O)[O-])cc1
10,inactive,O=C1[C@@H]2CCCN2[C@@H](c2ccc(O)cc2)N1c1ccc([N+](=O)[O-])cc1
